Experimental data taken from patent US20230414607A1, “METHODS OF TREATMENT” (BOW RIVER LLC, priority 2017, published 2023).

system: not listed separately; experiment: AUC and Cmax target safe levels of CYP3A4 substrate drugs (Table 1); details: component of ivacaftor/tezacaftor
Source text: In various embodiments, the “Target safe levels” are non-limiting examples of the upper limit of fold change or percent of baseline where in some embodiments the benefits of treating the patient for the condition or disease for which the CYP3A4 substrate drug is indicated outweigh the risks associated with the effects of a drug-drug interaction. […] For purposes of the present methods, the blood plasma levels measured during co-administration of the CYP3A4 substrate drug with […] may be used to estimate the posaconazole DDI decay curve, e.g., using equation 1.

AUC target safe level, Fold change | AUC target safe level, Percent of baseline | Cmax target safe level, Fold change | Cmax target safe level, Percent of baseline | Compound
2.95; fold | 295%; | 2.47; fold | 247%; | CC(C)(C)c1cc(C(C)(C)C)c(NC(=O)c2c[nH]c3ccccc3c2=O)cc1O [ivacaftor]

same assay, conditions: human

AUC target safe level, Fold change | AUC target safe level, Percent of baseline | Cmax target safe level, Fold change | Cmax target safe level, Percent of baseline | Compound
3.5 fold | 350% |  |  | CN(C(=O)c1ccccc1)[C@@H]1C[C@H]2O[C@@](C)([C@@H]1O)n1c3ccccc3c3c4c(c5c6ccccc6n2c5c31)C(=O)NC4 [CGP62221]
2.1 fold | 210% | 1.7 fold | 170% | COc1cc2c(cc1OC)[C@H]1C[C@@H](O)[C@H](CC(C)C)CN1CC2 [[+]-α-HTBZ]
1.24 fold | 124% | 1.38 fold | 138% | CNC(=O)c1ccc(N2C(=S)N(c3cnc(C#N)c(C(F)(F)F)c3)C(=O)C23CCC3)cc1F [apalutamide]
2 fold | 200% | 1.2 fold | 120% | O=c1ccc2ccc(OCCCCN3CCN(c4cccc5sccc45)CC3)cc2[nH]1 [brexpiprazole]
 | 400% |  |  | CN(C)C(=O)N[C@H]1CC[C@H](CCN2CCN(c3cccc(Cl)c3Cl)CC2)CC1 [cariprazine]
1.53 fold | 153% | 1.03 fold | 103% | COc1c(OCCCN2CCOCC2)ccc2c1N=C(NC(=O)c1cnc(N)nc1)N1CCN=C21 [copanlisib]
3 fold | 300% |  |  | CC(=O)OCC(=O)[C@@]12N=C(C)O[C@@H]1C[C@H]1[C@@H]3CCC4=CC(=O)C=C[C@]4(C)[C@H]3[C@@H](O)C[C@@]12C [deflazacort]
2 fold | 200% | 1.7 fold | 170% | C[C@H](Nc1ncnc2[nH]cnc12)c1cc2cccc(Cl)c2c(=O)n1-c1ccccc1 [duvelisib]
2.2 fold | 220% | 1.77 fold | 177% | COc1cccc(-c2c(C)n(Cc3c(F)cccc3C(F)(F)F)c(=O)n(C[C@H](NCCCC(=O)O)c3ccccc3)c2=O)c1F [elagolix sodium]
1.34 fold | 134% | 1.05 fold | 105% | COc1cc(OC)cc(N(CCNC(C)C)c2ccc3ncc(-c4cnn(C)c4)nc3c2)c1 [erdafitinib]
2.2 fold | 220% | 1.20 fold | 120% | CCc1nc(C(N)=O)c(Nc2ccc(N3CCC(N4CCN(C)CC4)CC3)c(OC)c2)nc1NC1CCOCC1 [gilteritinib]
2.4 fold | 240% | 1.4 fold | 140% | CN1CC[C@@H](NC(=O)Nc2ccc(C#N)cc2)C[C@@H]1c1nc2ccccc2[nH]1 [glasdegib]
 | 300% |  |  | C=CC(=O)N1CCC[C@@H](n2nc(-c3ccc(Oc4ccccc4)cc3)c3c(N)ncnc32)C1 [ibrutinib]
10.4 fold | 1040% |  |  | CO[C@@H]1[C@H](N(C)C(=O)c2ccccc2)C[C@H]2O[C@]1(C)n1c3ccccc3c3c4c(c5c6ccccc6n2c5c31)C(=O)NC4 [midostaurin]
1.73 fold | 173% | 1.62 fold | 162% | Cc1[nH]c2ccccc2c1CCNCc1ccc(/C=C/C(=O)NO)cc1 [panobinostat]
3 fold | 300% | 1.5 fold | 150% | CC(C)COc1ccc(CNC(=O)N(Cc2ccc(F)cc2)C2CCN(C)CC2)cc1 [pimavanserin]
1.91 fold | 191% | 1.33 fold | 133% | N#CC[C@H](C1CCCC1)n1cc(-c2ncnc3[nH]ccc23)cn1 [ruxolitinib]
2.0 fold | 200% |  |  | CC(C)(CO)c1cc2cc(NC(=O)C3(c4ccc5c(c4)OC(F)(F)O5)CC3)c(F)cc2n1C[C@@H](O)CO [tezacaftor]
 | 175% |  |  | C[C@@H]1CCN(C(=O)CC#N)C[C@@H]1N(C)c1ncnc2[nH]ccc12 [tofacitinib]
val: 2.2 fold | val: 220% | val: 1.6 fold | val: 160% | COc1cc2c(cc1OC)[C@H]1C[C@@H](OC(=O)[C@@H](N)C(C)C)[C@H](CC(C)C)CN1CC2 [valbenazine]

same assay, conditions: upper limit where benefits outweigh risks; approximation, can vary by about ±25%

AUC target safe level, Fold change [fold] | AUC target safe level, Percent of baseline [%] | Cmax target safe level, Fold change [fold] | Cmax target safe level, Percent of baseline [%] | Compound
1.7 | 170 | 1.4 | 140 | O=C1CCc2ccc(OCCCCN3CCN(c4cccc(Cl)c4Cl)CC3)cc2N1 [aripiprazole]
3 | 300 | 2.7 | 270 | CC(C)(C)c1cc(C(C)(C)C)c(NC(=O)c2c[nH]c3ccccc3c2=O)cc1O [ivacaftor]
1.51 | 151 | 1.49 | 149 | CCN(CC)CCNC(=O)c1c(C)[nH]c(/C=C2\C(=O)Nc3ccc(F)cc32)c1C [sunitinib]

Compound | AUC target safe level, Fold change [fold] | AUC target safe level, Percent of baseline [%] | Cmax target safe level, Fold change [fold] | Cmax target safe level, Percent of baseline [%]
CC(C)(NC(=O)C1=C(O)[C@@H]2Oc3c(O)ccc4c3[C@@]23CCN(CC2CC2)[C@H](C4)[C@]3(O)C1)c1nc(-c2ccccc2)no1 [naldemedine] | 1.9 | 190 | 1.38 | 138

target: CYP3A4 (Homo sapiens, UniProt P08684); experiment: not given; details: co-administered with a strong CYP3A4 inhibitor (posaconazole, itraconazole, ritonavir, or ketoconazole); cited from earlier work
Sequence (P08684 whole entry): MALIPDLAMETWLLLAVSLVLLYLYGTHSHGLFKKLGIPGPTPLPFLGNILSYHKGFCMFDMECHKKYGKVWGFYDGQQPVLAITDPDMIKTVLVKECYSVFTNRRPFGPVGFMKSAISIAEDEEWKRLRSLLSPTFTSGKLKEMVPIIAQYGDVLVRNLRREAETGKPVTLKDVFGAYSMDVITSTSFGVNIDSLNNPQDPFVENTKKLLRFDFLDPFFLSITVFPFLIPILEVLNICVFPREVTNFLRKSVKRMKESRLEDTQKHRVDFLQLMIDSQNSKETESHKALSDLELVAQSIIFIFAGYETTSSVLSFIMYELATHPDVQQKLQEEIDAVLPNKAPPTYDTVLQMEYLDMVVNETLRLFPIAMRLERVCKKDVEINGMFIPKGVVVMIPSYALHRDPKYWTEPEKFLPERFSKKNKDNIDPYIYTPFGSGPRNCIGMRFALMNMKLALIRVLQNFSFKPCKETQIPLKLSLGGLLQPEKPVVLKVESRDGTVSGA

Compound | AUC co-administration levels, Fold change | AUC co-administration levels, Percent of baseline
CCC(=O)O[C@]1(C(=O)SCF)[C@H](C)C[C@H]2[C@@H]3C[C@H](F)C4=CC(=O)C=C[C@]4(C)[C@@]3(F)[C@@H](O)C[C@@]21C [fluticasone propionate] | 1.9; fold | 190%;

same assay, conditions: in vivo; cited from earlier work

Compound | AUC co-administration levels, Fold change | AUC co-administration levels, Percent of baseline | Cmax co-administration levels, Fold change | Cmax co-administration levels, Percent of baseline | elevation of baseline AUC when coadministered with posaconazole (percent of baseline) [%]
COc1cc(Nc2c(C#N)cnc3cc(OCCCN4CCN(C)CC4)c(OC)cc23)c(Cl)cc1Cl [bosutinib] | 2 fold | 200% | 1.5 fold | 150% | 
COc1cc(N2CCC(N3CCN(C)CC3)CC2)ccc1Nc1ncc(Cl)c(Nc2ccccc2P(C)(C)=O)n1 [brigatinib] | 2.01 fold | 201% | 1.21 fold | 121% | 
CO[C@H]1C(=O)[C@]2(C)[C@@H](OC)C[C@H]3OC[C@@]3(OC(C)=O)[C@H]2[C@H](OC(=O)c2ccccc2)[C@]2(O)C[C@H](OC(=O)[C@H](O)[C@@H](NC(=O)OC(C)(C)C)c3ccccc3)C(C)=C1C2(C)C [cabazitaxel] | 1.25 fold | 125% |  |  | 
O=C(c1ccc(F)c(F)c1Nc1ccc(I)cc1F)N1CC(O)([C@@H]2CCCCN2)C1 [cobimetinib] | 6.7 fold | 670% | 3.2 fold | 320% | 
CC(C)(C)c1nc(-c2cccc(NS(=O)(=O)c3c(F)cccc3F)c2F)c(-c2ccnc(N)n2)s1 [dabrafenib] | 1.71 fold | 171% |  |  | 
COC(=O)N[C@H](C(=O)N1CCC[C@H]1c1nc(-c2ccc3c(c2)O[C@@H](c2ccccc2)n2c-3cc3cc(-c4c[nH]c([C@@H]5CCCN5C(=O)[C@@H](NC(=O)OC)C(C)C)n4)ccc32)c[nH]1)C(C)C [elbasvir] | EBR: 1.8; fold | 180%; | 1.29; fold | 129%; | 
COC(=O)N[C@@H](C)CNc1nccc(-c2cn(C(C)C)nc2-c2cc(Cl)cc(NS(C)(=O)=O)c2F)n1 [encorafenib] | 3 fold | 300% | 1.45 fold | 145% | 300
O=c1[nH]c2ccccc2n1CCN1CCN(c2cccc(C(F)(F)F)c2)CC1 [flibanserin] | 1.4 fold | 140% | 1.1 fold | 110% | 
C=C[C@@H]1C[C@]1(NC(=O)[C@@H]1C[C@@H]2CN1C(=O)[C@H](C(C)(C)C)NC(=O)O[C@@H]1C[C@H]1CCCCCc1nc3ccc(OC)cc3nc1O2)C(=O)NS(=O)(=O)C1CC1.O [grazoprevir] | GZR: 3.02 fold | 302% | 1.13 fold | 113% | 
